Where “and” joins values, the source holds several entries; their conditions need not be identical. Equal entries are not always repeated.
What was measured:
BCL-XL in BM KSL cells = experiment: BCL-XL protein intracellular flow cytometry of BM KSL cells; format: cell-based, mouse
Experimental: Intracellular flow cytometric analysis was performed on irradiated (300 cGy) or non-irradiated, sorted KSL cells after treatment with 1 μg/mL DJ001 or control (equal volumes of DMSO) for 24 h. At 24 h after irradiation, cells were fixed with 4% PFA for 10 min, followed by permeabilization using 0.25% saponin in PBS. Cells were washed again and stained with antibody at the recommended concentrations for 30 min at RT. Intracellular antibodies and phospho-flow antibodies used were as follows: FITC-conjugated anti-BCL-XL (Abcam, #26148, 1:100), active RAC1-GTP antibody (NewEast Biosciences, #26903, 1:100) and anti-PAK1 (phospho S144) + PAK2 (phospho S141) + PAK3 (phospho S154) antibody (Abcam, #40795, 1:100), and FITC-conjugated goat anti-rabbit IgG H&L (Abcam, #97050, 1:200).

pERK1/2 in BM KSL cells = experiment: phospho-ERK1/2 immunofluorescence microscopy; format: cell-based, mouse; conditions: irradiated BM KSL cells
Experimental: Lab-Tek chamber slides were coated with fibronectin (25 µg/mL, Millipore Sigma #341635). Sorted BM KSL cells (1 × 10^4) were resuspended in 200 µL TSF media and added to each of the pre-coated wells and incubated overnight (37 °C/5% CO2). The next day, cells were serum starved for 30 min and then stimulated with DJ001 (1 µg/mL), EHT1864 (6 µg/mL), or equal volumes of DMSO for 5 min. Cells were washed once with PBS and fixed with 4% PFA for 10 min. Cells were permeabilized with 0.5% Triton/PBS (PRM) for 30 min and then blocked with 5% fetal bovine serum (FBS)/PRM for 1 h. The slide was then incubated with a phospho-ERK1/2 primary antibody (Cell Signaling, #4377, 1:200) for 1 h. The wells were washed three times and then incubated with a donkey anti-rabbit Alexa Fluor 488 secondary antibody (Thermo Fischer, #A21206, 1:200) at a 1:200 concentration for 1 h. The slide was washed three times and mounted with ProLong Gold Antifade Reagent with DAPI. Cells were imaged using a ×63 objective on a Zeiss Axio Imager M2 widefield fluorescence microscope with all microscope settings derived from imaging a secondary only control. Data were analyzed using Fiji (ImageJ). Briefly, the cell outline was identified by threshold levels and the mean fluorescence intensity within the cell area was quantified.

For `O=C(/C=C\Nc1cccc([N+](=O)[O-])c1)c1ccccc1` [DJ001, (Z)-3-((3-nitrophenyl)amino)-1-phenylprop-2-en-1-one], the BCL-XL protein levels (BCL-XL in BM KSL cells; 300 cGy-irradiated BM KSL cells) was “increased”, the “Figure 3h: BCL-XL protein in BM KSL cells” value (BCL-XL in BM KSL cells; irradiated cells, replicates) was 17.43 and 16.61 and 16.35 and 15.49 and 16.56 and 12.16 and the ERK1/2 phosphorylation (pERK1/2 in BM KSL cells) was “induced ERK1/2 phosphorylation”.
